The source of these data is patent publication US9309248B2, “Azaindolines” (Hoffmann-La Roche Inc., priority 2012, dated 2016).

One test addresses T1, BIR2 domain of XIAP (Homo sapiens, UniProt P98170, C202A/C213G).
T1 construct: 6× Histidine-tagged BIR2 domain, corresponding to amino acids 124-240 of XIAP
As to the kind of experiment: TR-FRET assay for BIR2 (inhibition of binding of XIAP BIR2 domain to SMAC-derived Peptide A). The settings on record: 6x Histidine-tagged BIR2 domain (amino acids 124-240 of XIAP) 10 nM, Peptide A 20 nM. The protocol: (§1) TR-FRET Assay for BIR2 and BIR3
(§2) The ability of a test compound to inhibit the binding of BIR2 and/or BIR3 domains of the XIAP protein to Peptide A (a SMAC-derived peptide described below) evidences that the test compound acts as a SMAC-mimetic resulting in reactivation of a cell's apoptotic pathway.
(§3) The peptides were labeled with the fluorescent tags FITC or TAMRA and Kd values were determined by fluorescence polarization assay. […] The peptide sequence was derivatized with biotin to provide […]-(ε-biotin)-OH 1:2 TFA as the substrate for the TR-FRET assay.
The XIAP protein sequence was obtained from the SWISS-PROT protein sequence database and the BIR2 and BIR3 domains were derived from that. The sequence of the BIR2 domain used for the TR-FRET assay is […].
Time-resolved fluorescence resonance energy transfer (TR-FRET) signals were measured 1 hour later at room temperature. Test compound potency was assessed at 10 serially diluted concentrations. Percentage of inhibition at each concentration was determined to generate an IC50 value for each test compound.

The target of a further test is T2, BIR3 domain of XIAP (Homo sapiens, UniProt P98170).
T2 construct: BIR3 domain, corresponding to amino acids 241-356 of XIAP
Kind of test: TR-FRET assay for BIR3 (inhibition of binding of XIAP BIR3 domain to SMAC-derived Peptide A). The settings on record: 6x Histidine-tagged BIR3 domain (amino acids 241-356 of XIAP) 10 nM, Peptide A 20 nM. The protocol: as §1, §2, §3
The sequence of the BIR3 domain used for the TR-FRET assay is […]
Ten nanomolar of 6× Histidine-tagged BIR2 domain, corresponding to amino acids 124-240 of XIAP, or BIR3 domain, corresponding to amino acids 241-356 of XIAP, was mixed with 20 nM of the peptide […]-(z-biotin)-OH 1:2 TFA, in the presence of 50 mM Tris-Cl, pH 7.5, 100 mM NaCl, 1 mM dithiothreitol (DTT) and 0.1 mg/mL bovine serum albumin (BSA). Following a […] incubation at 37° C., Europium-Streptavidin and Allophycocyanin conjugated anti-Histidine antibody were added to a final concentration of 1.5 nM and 15 nM, respectively. Time-resolved fluorescence resonance energy transfer (TR-FRET) signals were measured 1 hour later at room temperature. Test compound potency was assessed at 10 serially diluted concentrations. Percentage of inhibition at each concentration was determined to generate an IC50 value for each test compound.

T1 sequence (P98170 with tags, fused parts or gaps C202A/C213G): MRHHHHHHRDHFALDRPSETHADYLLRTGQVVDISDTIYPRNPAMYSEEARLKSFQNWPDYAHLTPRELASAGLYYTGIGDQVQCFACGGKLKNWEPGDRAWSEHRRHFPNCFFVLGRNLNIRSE
T2 sequence (P98170 with tags, fused parts or gaps): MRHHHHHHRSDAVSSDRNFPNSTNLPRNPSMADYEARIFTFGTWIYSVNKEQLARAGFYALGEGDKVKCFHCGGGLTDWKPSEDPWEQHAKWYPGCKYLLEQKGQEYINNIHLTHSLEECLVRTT

As to `CN[C@@H](C)C(=O)N[C@H](C(=O)N1c2ncccc2C[C@H]1C(=O)Nc1ccc(F)cc1C)C(C)C` [Example 22, (S)-1-[(S)-3-Methyl-2-((S)-2-methylamino-propionylamino)-butyryl]-2,3-dihydro-1H-pyrrolo[2,3-b]pyridine-2-carboxylic acid (4-fluoro-2-methyl-phenyl)-amide], the results for the IC50 at BIR2 domain of XIAP and at BIR3 domain of XIAP were 103 nM and above 54800 nM, respectively.
For the molecule `CN[C@@H](C)C(=O)N[C@H](C(=O)N1c2ncccc2C[C@H]1C(=O)Nc1cc(F)cc(F)c1)C(C)C` [Example 23, (S)-1-[(S)-3-Methyl-2-((S)-2-methylamino-propionylamino)-butyryl]-2,3-dihydro-1H-pyrrolo[2,3-b]pyridine-2-carboxylic acid (3,5-difluoro-phenyl)-amide], the half-inhibitory concentration (IC50) – broadly, the concentration that gives 50% inhibition – on BIR2 domain of XIAP was 427 nM; at BIR3 domain of XIAP, above 54800 nM.
The corresponding values for `CN[C@@H](C)C(=O)N[C@H](C(=O)N1c2ncccc2C[C@H]1C(=O)NCc1ccc(F)cc1)C(C)C` [Example 24, (S)-1-[(S)-3-Methyl-2-((S)-2-methylamino-propionylamino)-butyryl]-2,3-dihydro-1H-pyrrolo[2,3-b]pyridine-2-carboxylic acid 4-fluoro-benzylamide] are 774 nM and 9210 nM.
Turning to `CN[C@@H](C)C(=O)N[C@H](C(=O)N1c2ncccc2C[C@H]1C(=O)Nc1ccccc1Cl)C(C)C` [Example 25, (S)-1-[(S)-3-Methyl-2-((S)-2-methylamino-propionylamino)-butyryl]-2,3-dihydro-1H-pyrrolo[2,3-b]pyridine-2-carboxylic acid (2-chloro-phenyl)-amide], the results for the IC50 at BIR2 domain of XIAP and on BIR3 domain of XIAP were 25.4 nM and above 54800 nM, respectively.
Regarding `CN[C@@H](C)C(=O)N[C@H](C(=O)N1c2ncccc2C[C@H]1C(=O)Nc1ccccc1C(=O)c1ccccc1)C(C)C` [Example 26, (S)-1-[(S)-3-Methyl-2-((S)-2-methylamino-propionylamino)-butyryl]-2,3-dihydro-1H-pyrrolo[2,3-b]pyridine-2-carboxylic acid (2-benzoyl-phenyl)-amide], the figures for the IC50 at BIR2 domain of XIAP and on BIR3 domain of XIAP were 61 nM and 52300 nM, respectively.
In the case of `CN[C@@H](C)C(=O)N[C@H](C(=O)N1c2ncccc2C[C@@H]1C(=O)Nc1ccccc1C(=O)c1ccccc1)C(C)C` [Example 27, (R)-1-[(S)-3-Methyl-2-((S)-2-methylamino-propionylamino)-butyryl]-2,3-dihydro-1H-pyrrolo[2,3-b]pyridine-2-carboxylic acid (2-benzoyl-phenyl)-amide], the IC50 at BIR2 domain of XIAP is 2110 nM; at BIR3 domain of XIAP it was above 54800 nM.
The corresponding values for `CN[C@@H](C)C(=O)N[C@H](C(=O)N1c2ncccc2C[C@H]1C(=O)Nc1c(F)cccc1F)C(C)C` [Example 28, (S)-1-[(S)-3-Methyl-2-((S)-2-methylamino-propionylamino)-butyryl]-2,3-dihydro-1H-pyrrolo[2,3-b]pyridine-2-carboxylic acid (2,6-difluoro-phenyl)-amide] are 14.4 nM and above 54800 nM.
For `CN[C@@H](C)C(=O)N[C@H](C(=O)N1c2ncccc2C[C@@H]1C(=O)Nc1c(F)cccc1F)C(C)C` [Example 29, (R)-1-[(S)-3-Methyl-2-((S)-2-methylamino-propionylamino)-butyryl]-2,3-dihydro-1H-pyrrolo[2,3-b]pyridine-2-carboxylic acid (2,6-difluoro-phenyl)-amide], in that order: 421 nM and above 54800 nM.
The corresponding values for `CN[C@@H](C)C(=O)N[C@H](C(=O)N1c2ncccc2C[C@H]1C(=O)Nc1ccccc1Oc1ccccc1)C(C)C` [Example 30, (S)-1-[(S)-3-Methyl-2-((S)-2-methylamino-propionylamino)-butyryl]-2,3-dihydro-1H-pyrrolo[2,3-b]pyridine-2-carboxylic acid (2-phenoxy-phenyl)-amide] are 158 nM and 46800 nM.
Take `CN[C@@H](C)C(=O)N[C@H](C(=O)N1c2ncccc2C[C@@H]1C(=O)Nc1ccccc1Oc1ccccc1)C(C)C` [Example 31, (R)-1-[(S)-3-Methyl-2-((S)-2-methylamino-propionylamino)-butyryl]-2,3-dihydro-1H-pyrrolo[2,3-b]pyridine-2-carboxylic acid (2-phenoxy-phenyl)-amide]: the IC50 is 11700 nM on BIR2 domain of XIAP and above 54800 nM on BIR3 domain of XIAP.
The corresponding values for `CN[C@@H](C)C(=O)N[C@H](C(=O)N1c2ncccc2C[C@H]1C(=O)Nc1c(C)cccc1F)C(C)C` [Example 32, (S)-1-[(S)-3-Methyl-2-((S)-2-methylamino-propionylamino)-butyryl]-2,3-dihydro-1H-pyrrolo[2,3-b]pyridine-2-carboxylic acid (2-fluoro-6-methyl-phenyl)-amide] are 9.59 nM and above 54800 nM.
For `CN[C@@H](C)C(=O)N[C@H](C(=O)N1c2ncccc2C[C@H]1C(=O)Nc1c(C)cccc1C)C(C)C` [Example 33, (S)-1-[(S)-3-Methyl-2-((S)-2-methylamino-propionylamino)-butyryl]-2,3-dihydro-1H-pyrrolo[2,3-b]pyridine-2-carboxylic acid (2,6-dimethyl-phenyl)-amide], in that order: 44.9 nM and above 54800 nM.
`CN[C@@H](C)C(=O)N[C@H](C(=O)N1c2ncccc2C[C@H]1c1nc2ccccc2[nH]1)C(C)C` [Example 34, (S)—N—{(S)-1-[(S)-2-(1H-Benzoimidazol-2-yl)-2,3-dihydro-pyrrolo[2,3-b]pyridine-1-carbonyl]-2-methyl-propyl}-2-methylamino-propionamide]: the results for the IC50 on BIR2 domain of XIAP and at BIR3 domain of XIAP were 137 nM and above 54800 nM, respectively.
For `CN[C@@H](C)C(=O)N[C@H](C(=O)N1c2ncccc2C[C@@H]1c1nc2ccccc2[nH]1)C(C)C` [Example 35, (S)—N—{(S)-1-[(R)-2-(1H-Benzoimidazol-2-yl)-2,3-dihydro-pyrrolo[2,3-b]pyridine-1-carbonyl]-2-methyl-propyl}-2-methylamino-propionamide], in that order: 37700 nM and above 54800 nM.
For `CN[C@@H](C)C(=O)N[C@H](C(=O)N1c2ncccc2C[C@H]1C(=O)Nc1ccccc1F)C(C)C` [Example 36, (S)-1-[(S)-3-Methyl-2-((S)-2-methylamino-propionylamino)-butyryl]-2,3-dihydro-1H-pyrrolo[2,3-b]pyridine-2-carboxylic acid (2-fluoro-phenyl)-amide], in that order: 12.7 nM and above 54800 nM.
Regarding `CN[C@@H](C)C(=O)N[C@H](C(=O)N1c2ncccc2C[C@H]1C(=O)NCC(F)(F)F)C(C)C` [Example 37, (S)-1-[(S)-3-Methyl-2-((S)-2-methylamino-propionylamino)-butyryl]-2,3-dihydro-1H-pyrrolo[2,3-b]pyridine-2-carboxylic acid (2,2,2-trifluoro-ethyl)-amide], the figures for the IC50 at BIR2 domain of XIAP and at BIR3 domain of XIAP were 323 nM and above 54800 nM, respectively.
The corresponding values for `CN[C@@H](C)C(=O)N[C@H](C(=O)N1c2ncccc2C[C@H]1C(=O)Nc1cnccc1C)C(C)C` [Example 38, (S)-1-[(S)-3-Methyl-2-((S)-2-methylamino-propionylamino)-butyryl]-2,3-dihydro-1H-pyrrolo[2,3-b]pyridine-2-carboxylic acid (4-methyl-pyridin-3-yl)-amide] are 237 nM and above 54800 nM.
